Source: the NIST ThermoML archive (doi:10.1021/acs.jced.5b00181)

Assay: xn = mol fraction of the nth substance listed
Settings: 101 kPa, Liquid; for viscosity: Falling or rolling sphere viscometry; for speed of sound: Frequency=3 MHz, Sing-around technique in a fixed-path interferometer; for mass density: Vibrating tube method

CCCC[n+]1ccn(C)c1.O=S(=O)([N-]S(=O)(=O)C(F)(F)F)C(F)(F)F + CCCO
Settings | mass density [kg/m3] | speed of sound [m/s] | viscosity [mPa·s]
278.15 K, x1 = 0.0508 | 926.62 | 1252.2 | 4.722
278.15 K, x1 = 0.0949 | 1002.03 | 1241 | 6.623
278.15 K, x1 = 0.1989 | 1130.78 | 1235.7 | 11.44
278.15 K, x1 = 0.2976 | 1214 | 1239.7 | 16.84
278.15 K, x1 = 0.3912 | 1272.23 | 1245.7 | 22.98
278.15 K, x1 = 0.4852 | 1317.37 | 1250.9 | 31.14
278.15 K, x1 = 0.5929 | 1358.04 | 1256.8 | 42.15
278.15 K, x1 = 0.692 | 1388.04 | 1261.7 | 56.15
278.15 K, x1 = 0.7968 | 1414.14 | 1266.2 | 76.57
278.15 K, x1 = 0.903 | 1436.28 | 1270.3 | 102.44
298.15 K, x1 = 0.0508 | 909.64 | 1188.9 | 2.701
298.15 K, x1 = 0.0949 | 984.4 | 1181.4 | 3.573
298.15 K, x1 = 0.1989 | 1112.17 | 1180.9 | 5.908
298.15 K, x1 = 0.2976 | 1194.92 | 1187.6 | 8.374
298.15 K, x1 = 0.3912 | 1252.93 | 1195.6 | 10.88
298.15 K, x1 = 0.4852 | 1297.96 | 1201.7 | 14.14
298.15 K, x1 = 0.5929 | 1338.58 | 1208.6 | 18.55
298.15 K, x1 = 0.692 | 1368.59 | 1214.5 | 23.83
298.15 K, x1 = 0.7968 | 1394.7 | 1219.5 | 30.51
298.15 K, x1 = 0.903 | 1416.85 | 1224 | 39.95
318.15 K, x1 = 0.0508 | 892.29 | 1127.5 | 1.693
318.15 K, x1 = 0.0949 | 966.47 | 1123.7 | 2.187
318.15 K, x1 = 0.1989 | 1093.43 | 1128.2 | 3.491
318.15 K, x1 = 0.2976 | 1175.83 | 1137.6 | 4.677
318.15 K, x1 = 0.3912 | 1233.7 | 1147.2 | 6.173
318.15 K, x1 = 0.4852 | 1278.71 | 1154.6 | 7.805
318.15 K, x1 = 0.5929 | 1319.36 | 1162.5 | 10.1
318.15 K, x1 = 0.692 | 1349.4 | 1169.2 | 12.76
318.15 K, x1 = 0.7968 | 1375.56 | 1174.9 | 15.78
318.15 K, x1 = 0.903 | 1397.74 | 1180.1 | 19.35
338.15 K, x1 = 0.0508 | 874.3 | – | 1.136
338.15 K, x1 = 0.0519 | – | 1066.7 | –
338.15 K, x1 = 0.0949 | 948.03 | – | 1.457
338.15 K, x1 = 0.1037 | – | 1066.7 | –
338.15 K, x1 = 0.1989 | 1074.44 | – | 2.303
338.15 K, x1 = 0.2013 | – | 1076.8 | –
338.15 K, x1 = 0.2976 | 1156.66 | – | 3.004
338.15 K, x1 = 0.3088 | – | 1089 | –
338.15 K, x1 = 0.3912 | 1214.5 | – | 3.93
338.15 K, x1 = 0.3963 | – | 1100 | –
338.15 K, x1 = 0.4852 | 1259.59 | – | 4.908
338.15 K, x1 = 0.4918 | – | 1109.1 | –
338.15 K, x1 = 0.5723 | – | 1118.3 | –
338.15 K, x1 = 0.5929 | 1300.32 | – | 6.258
338.15 K, x1 = 0.692 | 1330.43 | – | 7.446
338.15 K, x1 = 0.7026 | – | 1125.4 | –
338.15 K, x1 = 0.7968 | 1356.65 | – | 9.633
338.15 K, x1 = 0.8055 | – | 1132 | –
338.15 K, x1 = 0.9025 | – | 1137.8 | –
338.15 K, x1 = 0.903 | 1378.89 | – | 11.48

CCn1cc[n+](C)c1.O=S(=O)([N-]S(=O)(=O)C(F)(F)F)C(F)(F)F + CCCO
Settings | mass density [kg/m3] | speed of sound [m/s] | viscosity [mPa·s]
278.15 K, x1 = 0.4918 | 1372.4 | 1253.1 | 20.94
278.15 K, x1 = 0.5723 | 1410.18 | 1259.6 | 25.39
278.15 K, x1 = 0.7026 | 1459.58 | 1268.7 | 34.81
278.15 K, x1 = 0.8055 | 1491.11 | 1274.9 | 44.9
278.15 K, x1 = 0.9025 | 1516.35 | 1280 | 56.99
298.15 K, x1 = 0.0519 | 914.24 | 1184.8 | 2.639
298.15 K, x1 = 0.1037 | 1005.11 | 1175.1 | 3.53
298.15 K, x1 = 0.2013 | 1134.16 | 1175.8 | 5.134
298.15 K, x1 = 0.3088 | 1235.5 | 1186.2 | 6.891
298.15 K, x1 = 0.3963 | 1297.78 | 1195.6 | 8.358
298.15 K, x1 = 0.4918 | 1352.18 | 1205 | 10.6
298.15 K, x1 = 0.5723 | 1389.87 | 1212.2 | 12.63
298.15 K, x1 = 0.7026 | 1439.2 | 1222.2 | 16.89
298.15 K, x1 = 0.8055 | 1470.7 | 1228.9 | 21.07
298.15 K, x1 = 0.9025 | 1495.92 | 1234.3 | 25.97
318.15 K, x1 = 0.0519 | 896.79 | 1124.1 | 1.656
318.15 K, x1 = 0.1037 | 986.91 | 1119.3 | 2.083
318.15 K, x1 = 0.2013 | 1115.01 | 1124.8 | 2.938
318.15 K, x1 = 0.3088 | 1215.8 | 1137.8 | 3.978
318.15 K, x1 = 0.3963 | 1277.87 | 1148.3 | 4.994
318.15 K, x1 = 0.4918 | 1332.15 | 1158.9 | 6.245
318.15 K, x1 = 0.5723 | 1369.81 | 1166.8 | 7.454
318.15 K, x1 = 0.7026 | 1419.12 | 1177.7 | 9.792
318.15 K, x1 = 0.8055 | 1450.62 | 1185 | 11.97
318.15 K, x1 = 0.9025 | 1475.84 | 1191 | 14.58
338.15 K, x1 = 0.0519 | 878.72 | 1064.4 | 1.117
338.15 K, x1 = 0.1037 | 968.2 | 1064.1 | 1.389
338.15 K, x1 = 0.2013 | 1095.6 | 1074.6 | 1.956
338.15 K, x1 = 0.3088 | 1196.06 | 1090.4 | 2.656
338.15 K, x1 = 0.3963 | 1258.02 | 1102.6 | 3.333
338.15 K, x1 = 0.4918 | 1312.29 | 1114.4 | 4.156
338.15 K, x1 = 0.5723 | 1349.96 | 1123.2 | 4.931
338.15 K, x1 = 0.7026 | 1399.28 | 1135.3 | 6.395
338.15 K, x1 = 0.8055 | 1430.83 | 1143.2 | 7.634
338.15 K, x1 = 0.9025 | 1456.06 | 1149.7 | 9.201
